Test results as given in US20160177395A1, “BIOMARKERS FOR THE PREDICTION OF RENAL INJURY” (priority 2007, published 2016).
Several values for one entry are separate records, joined by “and”; a condition that tells them apart may be missing. Equal entries are not always repeated.

Test system: kidney tissues of treated or untreated rats
Experiment: Real-time qRT-PCR of signature amplicons, validation stage, labeled and un-labeled samples (Table 23)
Conditions: for H31883_DB71_seg13 normalized qRT-PCR result / MUSCYCG1R_DB81_seg19-20 normalized qRT-PCR result / W41270_DB81_seg11 normalized qRT-PCR result: labeled sample, one line per animal
Outline: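 Each of four signature genes measured as wild-type and alternative-splice amplicons by qRT-PCR in treated or untreated rat kidney. Normalization was two-step: housekeeping-gene factor, then inter-plate correction from shared samples on a shuffled control plate; final values rescaled for display.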

[1] = day1, female rat kidney, listed as CadCl
[2] = day1, male rat kidney, listed as CadCl
[3] = day5, female rat kidney, listed as CadCl
[4] = day5, male rat kidney, listed as CadCl
[5] = day28, female rat kidney, listed as CadCl
[6] = day28, male rat kidney, listed as CadCl
[7] = labeled samples, day1, kidney of individual male/female rats, listed as CadCl
[8] = labeled samples, day5, kidney of individual male/female rats, listed as CadCl
[9] = labeled samples, day28, kidney of individual male/female rats, listed as CadCl
[10] = day1, female rat kidney, listed as Cis
[11] = day1, male rat kidney, listed as Cis
[12] = day28, female rat kidney, listed as Cis
[13] = day28, male rat kidney, listed as Cis
[14] = labeled samples, day1, kidney of individual male/female rats, listed as Cis
[15] = labeled samples, day5, kidney of individual male/female rats, listed as Cis
[16] = labeled samples, day28, kidney of individual male/female rats, listed as Cis
[17] = labeled samples, day1, kidney of individual male/female rats
[18] = labeled samples, day5, kidney of individual male/female rats
[19] = labeled samples, day28, kidney of individual male/female rats

## [Cl][Cd][Cl] [Cadmium chloride]
[1]
  H31883_DB71_seg13 normalized qRT-PCR result: 1.194 and 1.772 and 1.894
  MUSCYCG1R_DB81_seg19-20 normalized qRT-PCR result: 1.133 and 1.64 and 1.263
  W41270_DB81_seg11 normalized qRT-PCR result: 1.059 and 1.155 and 1.372
[2]
  H31883_DB71_seg13 normalized qRT-PCR result: 1.034 and 1.027 and 0.957
  MUSCYCG1R_DB81_seg19-20 normalized qRT-PCR result: 0.951 and 1.108 and 1.069
  W41270_DB81_seg11 normalized qRT-PCR result: 1.499 and 1.622 and 1.512
[3]
  H31883_DB71_seg13 normalized qRT-PCR result: 1.782 and 0.906
  MUSCYCG1R_DB81_seg19-20 normalized qRT-PCR result: 1.866 and 0.805
  W41270_DB81_seg11 normalized qRT-PCR result: 2.282 and 0.854
[4]
  H31883_DB71_seg13 normalized qRT-PCR result: 1.104 and 1.157 and 1.671
  MUSCYCG1R_DB81_seg19-20 normalized qRT-PCR result: 1.083 and 1.409 and 2.393
  W41270_DB81_seg11 normalized qRT-PCR result: 1.337 and 1.662 and 1.675
[5]
  H31883_DB71_seg13 normalized qRT-PCR result: 0.259 and 0.783 and 1.033
  MUSCYCG1R_DB81_seg19-20 normalized qRT-PCR result: 0.728 and 0.975 and 1.58
  W41270_DB81_seg11 normalized qRT-PCR result: 0.414 and 0.827 and 1.098
[6]
  H31883_DB71_seg13 normalized qRT-PCR result: 0.531 and 0.817 and 0.633
  MUSCYCG1R_DB81_seg19-20 normalized qRT-PCR result: 0.672 and 0.836 and 0.333
  W41270_DB81_seg11 normalized qRT-PCR result: 0.781 and 1.107 and 0.807
[7]
  H31883_DB71_seg13 normalized qRT-PCR expression (Cyclin-G1 (CCNG1) transcript): 0.919 and 1.005 and 1.446 and 1.239 and 1.632 and 1.143
  MUSCYCG1R_DB81_seg19-20 normalized qRT-PCR expression: 1.224 and 1.097 and 2.129 and 2.276 and 1.856 and 3.981
  W41270_DB81_seg11 normalized qRT-PCR expression (tumor necrosis factor receptor superfamily, member 12a transcript): 0.727 and 1.183 and 1.265 and 0.993 and 0.983 and 1
[8]
  H31883_DB71_seg13 normalized qRT-PCR expression (Cyclin-G1 (CCNG1) transcript): 1.057 and 1.154 and 0.786 and 1.132 and 1.051
  MUSCYCG1R_DB81_seg19-20 normalized qRT-PCR expression: 1.036 and 2.018 and 1.292 and 3.613 and 2.866
  W41270_DB81_seg11 normalized qRT-PCR expression (tumor necrosis factor receptor superfamily, member 12a transcript): 1.067 and 2.101 and 1.109 and 0.769 and 1.211
[9]
  H31883_DB71_seg13 normalized qRT-PCR expression (Cyclin-G1 (CCNG1) transcript): 0.785 and 0.652 and 0.712 and 0.681 and 0.849 and 0.578
  MUSCYCG1R_DB81_seg19-20 normalized qRT-PCR expression: 0.769 and 1.356 and 1.068 and 0.68 and 2.128 and 0.932
  W41270_DB81_seg11 normalized qRT-PCR expression (tumor necrosis factor receptor superfamily, member 12a transcript): 1.138 and 0.529 and 0.772 and 0.578 and 0.654 and 0.522

## N.N.[Cl][Pt][Cl] [Cisplatin]
[10]
  H31883_DB71_seg13 normalized qRT-PCR result: 0.844 and 1.209 and 1.345
  MUSCYCG1R_DB81_seg19-20 normalized qRT-PCR result: 0.631 and 0.788 and 0.899
  W41270_DB81_seg11 normalized qRT-PCR result: 0.81 and 1.261 and 1.096
[11]
  H31883_DB71_seg13 normalized qRT-PCR result: 0.799 and 1.09 and 0.902
  MUSCYCG1R_DB81_seg19-20 normalized qRT-PCR result: 0.495 and 1.64 and 0.811
  W41270_DB81_seg11 normalized qRT-PCR result: 0.815 and 2.455 and 1.176
[12]
  H31883_DB71_seg13 normalized qRT-PCR result: 1.749 and 0.786 and 1.864
  MUSCYCG1R_DB81_seg19-20 normalized qRT-PCR result: 2.301 and 1.555 and 3.336
  W41270_DB81_seg11 normalized qRT-PCR result: 2.504 and 2.643 and 5.783
[13]
  H31883_DB71_seg13 normalized qRT-PCR result: 1.587 and 0.786 and 1.371
  MUSCYCG1R_DB81_seg19-20 normalized qRT-PCR result: 4.504 and 1.428 and 1.753
  W41270_DB81_seg11 normalized qRT-PCR result: 5.917 and 3.371 and 3.008
[14]
  H31883_DB71_seg13 normalized qRT-PCR expression (Cyclin-G1 (CCNG1) transcript): 0.668 and 0.853 and 1.416 and 2.092 and 2.559 and 1.134
  MUSCYCG1R_DB81_seg19-20 normalized qRT-PCR expression: 0.806 and 1.514 and 1.492 and 3.259 and 2.003 and 1.277
  W41270_DB81_seg11 normalized qRT-PCR expression (tumor necrosis factor receptor superfamily, member 12a transcript): 0.679 and 0.759 and 1.331 and 1.029 and 1.224 and 0.496
[15]
  AI045075_DB71_seg6 normalized qRT-PCR expression (Interferon stimulated exonuclease 20 (ISG20) transcript): 1.804 and 1.683 and 4.298 and 1.503 and 0.93 and 1.09
  H31883_DB71_seg13 normalized qRT-PCR expression (Cyclin-G1 (CCNG1) transcript): 3.816 and 5.526 and 3.771 and 1.509 and 1.642 and 2.695
  MUSCYCG1R_DB81_seg19-20 normalized qRT-PCR expression: 2.034 and 4.156 and 4.947 and 0.981 and 3.172 and 1.643
  W41270_DB81_seg11 normalized qRT-PCR expression (tumor necrosis factor receptor superfamily, member 12a transcript): 1.262 and 3.597 and 1.404 and 0.843 and 2.113 and 0.705
  W64472_DB81_seg2 normalized qRT-PCR expression (Interferon stimulated exonuclease 20 (ISG20) transcript): 1.795 and 3.64 and 6.414 and 1.976 and 1.448 and 1.265
  W83813_DB81_seg27 normalized qRT-PCR expression: 1.716 and 0.857 and 1.461 and 1.366 and 0.758 and 1.265
[16]
  H31883_DB71_seg13 normalized qRT-PCR expression (Cyclin-G1 (CCNG1) transcript): 4.41 and 2.839 and 2.398 and 2.653 and 5.592 and 3.563
  MUSCYCG1R_DB81_seg19-20 normalized qRT-PCR expression: 3.509 and 3.443 and 1.813 and 3.094 and 7.02 and 3.473
  W41270_DB81_seg11 normalized qRT-PCR expression (tumor necrosis factor receptor superfamily, member 12a transcript): 4.741 and 4.104 and 2.053 and 1.904 and 4.516 and 3.866

## Gentamycin
day1, female rat kidney
  H31883_DB71_seg13 normalized qRT-PCR result: 0.963 and 0.98 and 0.898
  MUSCYCG1R_DB81_seg19-20 normalized qRT-PCR result: 1.251 and 0.889 and 2.053
  W41270_DB81_seg11 normalized qRT-PCR result: 0.763 and 0.963 and 1.408
day1, male rat kidney
  H31883_DB71_seg13 normalized qRT-PCR result: 1.02 and 1.409 and 1.161
  MUSCYCG1R_DB81_seg19-20 normalized qRT-PCR result: 1.072 and 1.848 and 1.221
  W41270_DB81_seg11 normalized qRT-PCR result: 1.567 and 1.869 and 1.48
day28, female rat kidney
  H31883_DB71_seg13 normalized qRT-PCR result: 0.421 and 0.441 and 0.434
  MUSCYCG1R_DB81_seg19-20 normalized qRT-PCR result: 0.967 and 2.632 and 1.78
  W41270_DB81_seg11 normalized qRT-PCR result: 0.806 and 1.079 and 1.164
day28, male rat kidney
  H31883_DB71_seg13 normalized qRT-PCR result: 0.852 and 0.857 and 0.756
  MUSCYCG1R_DB81_seg19-20 normalized qRT-PCR result: 1.734 and 3.06 and 1.469
  W41270_DB81_seg11 normalized qRT-PCR result: 1.55 and 1.353 and 1.245
[17]
  H31883_DB71_seg13 normalized qRT-PCR expression (Cyclin-G1 (CCNG1) transcript): 0.772 and 1.118 and 0.987 and 1.115 and 0.84 and 1.053
  MUSCYCG1R_DB81_seg19-20 normalized qRT-PCR expression: 0.842 and 1.155 and 1.361 and 2.011 and 1.387 and 2.861
  W41270_DB81_seg11 normalized qRT-PCR expression (tumor necrosis factor receptor superfamily, member 12a transcript): 1.361 and 1.037 and 0.904 and 1.08 and 2.078 and 0.85
Labeled samples, day5
  Label: true label (Normal/Toxic), known renal toxic effect: Toxic
[18]
  AI045075_DB71_seg6 normalized qRT-PCR expression (Interferon stimulated exonuclease 20 (ISG20) transcript): 1.337 and 1.374 and 1.402 and 1.778 and 1.636 and 1.256
  H31883_DB71_seg13 normalized qRT-PCR expression (Cyclin-G1 (CCNG1) transcript): 0.948 and 1.09 and 0.78 and 1.142 and 1.402 and 1.515
  MUSCYCG1R_DB81_seg19-20 normalized qRT-PCR expression: 1.085 and 0.993 and 0.955 and 1.442 and 1.842 and 1.644
  W41270_DB81_seg11 normalized qRT-PCR expression (tumor necrosis factor receptor superfamily, member 12a transcript): 0.983 and 0.954 and 1.104 and 1.699 and 0.82 and 2.64
  W64472_DB81_seg2 normalized qRT-PCR expression (Interferon stimulated exonuclease 20 (ISG20) transcript): 1.733 and 2.048 and 1.962 and 1.427 and 1.403 and 1.53
  W83813_DB81_seg27 normalized qRT-PCR expression: 1.688 and 1.042 and 0.702 and 1.441 and 1.395 and 0.76
[19]
  H31883_DB71_seg13 normalized qRT-PCR expression (Cyclin-G1 (CCNG1) transcript): 0.853 and 0.861 and 0.553 and 0.817 and 0.554 and 0.842
  MUSCYCG1R_DB81_seg19-20 normalized qRT-PCR expression: 0.863 and 1.072 and 0.617 and 0.865 and 0.729 and 1.661
  W41270_DB81_seg11 normalized qRT-PCR expression (tumor necrosis factor receptor superfamily, member 12a transcript): 1.614 and 1.342 and 1.315 and 1.194 and 1.188 and 1.941
